Data as given in the NIST ThermoML archive (doi:10.1021/je049671t).
± gives the expanded uncertainty stated by the source.

Assay: xn = mol fraction of the nth substance listed
Conditions: Liquid, Vibrating tube method

CC(C)C [2-methylpropane] + CCC
Conditions	mass density [kg/m3]
240 K, 398.2 kPa, x2 = 0.25	608.19 ± 0.26
240 K, 475.1 kPa, x2 = 0.25	608.27 ± 0.27
240 K, 529.1 kPa, x2 = 0.75	584.35 ± 0.27
240 K, 1000.1 kPa, x2 = 0.25	608.87 ± 0.27
240 K, 1024.1 kPa, x2 = 0.75	584.98 ± 0.28
240 K, 1473.4 kPa, x2 = 0.75	585.53 ± 0.28
240 K, 1505.9 kPa, x2 = 0.25	609.45 ± 0.27
240 K, 2000.7 kPa, x2 = 0.75	586.19 ± 0.29
240 K, 2004.5 kPa, x2 = 0.25	610.02 ± 0.28
240 K, 2531.8 kPa, x2 = 0.75	586.84 ± 0.29
240 K, 2533 kPa, x2 = 0.25	610.61 ± 0.28
240 K, 3006.4 kPa, x2 = 0.75	587.4 ± 0.3
240 K, 3028.4 kPa, x2 = 0.25	611.15 ± 0.29
240 K, 3537.9 kPa, x2 = 0.25	611.73 ± 0.29
240 K, 3545.4 kPa, x2 = 0.75	588.06 ± 0.3
240 K, 4012.9 kPa, x2 = 0.75	588.63 ± 0.31
240 K, 4027.7 kPa, x2 = 0.25	612.28 ± 0.3
240 K, 4515.3 kPa, x2 = 0.75	589.21 ± 0.31
240 K, 4519.1 kPa, x2 = 0.25	612.81 ± 0.3
240 K, 4996.8 kPa, x2 = 0.75	589.79 ± 0.32
240 K, 5030.4 kPa, x2 = 0.25	613.37 ± 0.31
240 K, 5496.4 kPa, x2 = 0.75	590.37 ± 0.32
240 K, 5533.4 kPa, x2 = 0.25	613.91 ± 0.31
240 K, 6009 kPa, x2 = 0.75	590.98 ± 0.33
240 K, 6033 kPa, x2 = 0.25	614.45 ± 0.32
240 K, 6541 kPa, x2 = 0.75	591.59 ± 0.33
240 K, 6541.5 kPa, x2 = 0.25	615 ± 0.32
240 K, 6969.5 kPa, x2 = 0.75	592.1 ± 0.34
240 K, 6987.7 kPa, x2 = 0.25	615.48 ± 0.33
250 K, 515.5 kPa, x2 = 0.499	584.94 ± 0.27
250 K, 1014.4 kPa, x2 = 0.499	585.61 ± 0.28
250 K, 1511.1 kPa, x2 = 0.499	586.26 ± 0.28
250 K, 2027.5 kPa, x2 = 0.499	586.95 ± 0.29
250 K, 2489.8 kPa, x2 = 0.499	587.55 ± 0.29
250 K, 3012.9 kPa, x2 = 0.499	588.23 ± 0.3
250 K, 3492.5 kPa, x2 = 0.499	588.84 ± 0.3
250 K, 3995.9 kPa, x2 = 0.499	589.47 ± 0.31
250 K, 4532.5 kPa, x2 = 0.499	590.12 ± 0.31
250 K, 5042.2 kPa, x2 = 0.499	590.74 ± 0.32
250 K, 5484.6 kPa, x2 = 0.499	591.29 ± 0.32
250 K, 5996.5 kPa, x2 = 0.499	591.9 ± 0.33
250 K, 6509.5 kPa, x2 = 0.499	592.48 ± 0.33
250 K, 6818.8 kPa, x2 = 0.499	592.84 ± 0.34
260 K, 251.9 kPa, x2 = 0.75	560.57 ± 0.27
260 K, 521.1 kPa, x2 = 0.25	586.55 ± 0.27
260 K, 527 kPa, x2 = 0.75	561.44 ± 0.28
260 K, 990.2 kPa, x2 = 0.25	587.2 ± 0.28
260 K, 1026.1 kPa, x2 = 0.75	562.22 ± 0.28
260 K, 1481.6 kPa, x2 = 0.25	587.88 ± 0.28
260 K, 1524.1 kPa, x2 = 0.75	563.04 ± 0.29
260 K, 2004.4 kPa, x2 = 0.25	588.63 ± 0.29
260 K, 2030.6 kPa, x2 = 0.75	563.8 ± 0.29
260 K, 2504.8 kPa, x2 = 0.25	589.32 ± 0.29
260 K, 2508.8 kPa, x2 = 0.75	564.52 ± 0.3
260 K, 2995 kPa, x2 = 0.25	589.98 ± 0.3
260 K, 3035.5 kPa, x2 = 0.75	565.31 ± 0.3
260 K, 3494.1 kPa, x2 = 0.75	566 ± 0.31
260 K, 3517.2 kPa, x2 = 0.25	590.65 ± 0.3
260 K, 3986.7 kPa, x2 = 0.25	591.2 ± 0.31
260 K, 4039.9 kPa, x2 = 0.75	566.81 ± 0.32
260 K, 4476.3 kPa, x2 = 0.25	591.87 ± 0.31
260 K, 4527.2 kPa, x2 = 0.75	567.5 ± 0.32
260 K, 4968.6 kPa, x2 = 0.75	568.07 ± 0.33
260 K, 4976.3 kPa, x2 = 0.25	592.53 ± 0.32
260 K, 5537.1 kPa, x2 = 0.75	568.72 ± 0.33
260 K, 5550.8 kPa, x2 = 0.25	593.3 ± 0.32
260 K, 6051.9 kPa, x2 = 0.25	593.96 ± 0.33
260 K, 6474.3 kPa, x2 = 0.25	594.47 ± 0.33
260 K, 6513.6 kPa, x2 = 0.75	570.1 ± 0.34
260 K, 6922.9 kPa, x2 = 0.75	570.57 ± 0.35
260 K, 7006.2 kPa, x2 = 0.25	595.15 ± 0.34
280 K, 467.2 kPa, x2 = 0.499	549.36 ± 0.28
280 K, 478.7 kPa, x2 = 0.75	535.35 ± 0.28
280 K, 500.3 kPa, x2 = 0.25	562.94 ± 0.28
280 K, 952.8 kPa, x2 = 0.499	550.3 ± 0.29
280 K, 990.6 kPa, x2 = 0.75	536.42 ± 0.29
280 K, 1004.7 kPa, x2 = 0.25	563.86 ± 0.28
280 K, 1462.8 kPa, x2 = 0.25	564.67 ± 0.29
280 K, 1514 kPa, x2 = 0.499	551.39 ± 0.29
280 K, 1517.2 kPa, x2 = 0.75	537.51 ± 0.3
280 K, 2007.8 kPa, x2 = 0.25	565.62 ± 0.29
280 K, 2007.8 kPa, x2 = 0.499	552.34 ± 0.3
280 K, 2029.6 kPa, x2 = 0.75	538.54 ± 0.3
280 K, 2489.1 kPa, x2 = 0.499	553.22 ± 0.3
280 K, 2510.3 kPa, x2 = 0.75	539.5 ± 0.31
280 K, 2513.6 kPa, x2 = 0.25	566.51 ± 0.3
280 K, 2999.1 kPa, x2 = 0.25	567.36 ± 0.3
280 K, 3019.4 kPa, x2 = 0.75	540.5 ± 0.31
280 K, 3022.9 kPa, x2 = 0.499	554.21 ± 0.31
280 K, 3488.8 kPa, x2 = 0.25	568.19 ± 0.31
280 K, 3519.6 kPa, x2 = 0.499	555.1 ± 0.31
280 K, 3522.3 kPa, x2 = 0.75	541.47 ± 0.32
280 K, 3992 kPa, x2 = 0.499	555.95 ± 0.32
280 K, 3992.4 kPa, x2 = 0.25	569.03 ± 0.31
280 K, 4026.3 kPa, x2 = 0.75	542.43 ± 0.32
280 K, 4516.8 kPa, x2 = 0.25	569.91 ± 0.32
280 K, 4518.6 kPa, x2 = 0.499	556.87 ± 0.33
280 K, 4544.4 kPa, x2 = 0.75	543.38 ± 0.33
280 K, 4965.2 kPa, x2 = 0.75	544.17 ± 0.34
280 K, 4979.1 kPa, x2 = 0.25	570.66 ± 0.33
280 K, 5014 kPa, x2 = 0.499	557.72 ± 0.33
280 K, 5482.8 kPa, x2 = 0.499	558.54 ± 0.34
280 K, 5485 kPa, x2 = 0.25	571.47 ± 0.33
280 K, 5530.9 kPa, x2 = 0.75	545.19 ± 0.34
280 K, 5989.4 kPa, x2 = 0.25	572.28 ± 0.34
280 K, 6012.9 kPa, x2 = 0.75	546.05 ± 0.35
280 K, 6027 kPa, x2 = 0.499	559.46 ± 0.34
280 K, 6488.2 kPa, x2 = 0.75	546.89 ± 0.35
280 K, 6525.9 kPa, x2 = 0.499	560.31 ± 0.35
280 K, 6532.5 kPa, x2 = 0.25	573.13 ± 0.34
280 K, 6931.1 kPa, x2 = 0.75	547.66 ± 0.36
280 K, 6938.9 kPa, x2 = 0.499	560.98 ± 0.35
280 K, 6965.6 kPa, x2 = 0.25	573.82 ± 0.35
280 K, 6968.2 kPa, x2 = 0.25	573.78 ± 0.35
300 K, 824.3 kPa, x2 = 0.75	507.35 ± 0.3
300 K, 996.8 kPa, x2 = 0.499	523.82 ± 0.29
300 K, 1001.6 kPa, x2 = 0.25	538.53 ± 0.29
300 K, 1503.7 kPa, x2 = 0.25	539.71 ± 0.29
300 K, 1519.6 kPa, x2 = 0.499	525.17 ± 0.3
300 K, 1534 kPa, x2 = 0.75	509.38 ± 0.3
300 K, 2006.6 kPa, x2 = 0.25	540.87 ± 0.3
300 K, 2026.1 kPa, x2 = 0.499	526.45 ± 0.31
300 K, 2028.3 kPa, x2 = 0.75	510.77 ± 0.31
300 K, 2493.2 kPa, x2 = 0.75	512.04 ± 0.32
300 K, 2510.6 kPa, x2 = 0.25	542.01 ± 0.31
300 K, 2530.4 kPa, x2 = 0.499	527.7 ± 0.31
300 K, 3014.6 kPa, x2 = 0.25	543.13 ± 0.31
300 K, 3028.7 kPa, x2 = 0.75	513.47 ± 0.32
300 K, 3043.4 kPa, x2 = 0.499	528.93 ± 0.32
300 K, 3486.8 kPa, x2 = 0.499	529.95 ± 0.32
300 K, 3488.8 kPa, x2 = 0.25	544.16 ± 0.32
300 K, 3519.2 kPa, x2 = 0.75	514.75 ± 0.33
300 K, 3995.5 kPa, x2 = 0.499	531.16 ± 0.33
300 K, 3996.7 kPa, x2 = 0.75	515.97 ± 0.33
300 K, 4012 kPa, x2 = 0.25	545.28 ± 0.32
300 K, 4467.1 kPa, x2 = 0.75	517.17 ± 0.34
300 K, 4483.4 kPa, x2 = 0.25	546.25 ± 0.33
300 K, 4503.6 kPa, x2 = 0.499	532.34 ± 0.34

mass density [kg/m3]
Conditions	240 K	250 K	260 K	280 K
x2 = 0.25	607.81 ± 0.26	–	585.98 ± 0.27	562.49 ± 0.27
x2 = 0.499	–	584.44 ± 0.27	–	549.15 ± 0.28
x2 = 0.75	583.82 ± 0.27	–	560.96 ± 0.27	535.32 ± 0.28
